Test results published in PubChem BioAssay (NCI).
Several values for one entry are separate records, joined by “and”; a condition that tells them apart may be missing. Equal values may be shown once.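 Assay format: 96-well plates, 48-hour exposure. GI50 is the concentration that inhibits growth by half. TGI is the concentration that stops growth completely.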

Assays:
Experiment in all cases: NCI tumour cell line growth inhibition, 48 h
786-0 renal = test system: 786-0 renal
ACHN renal = test system: ACHN renal
CCRF-CEM leukemia = test system: CCRF-CEM leukemia
COLO 205 colon = test system: COLO 205 colon
DU-145 prostate = test system: DU-145 prostate
EKVX NSCLC = test system: EKVX NSCLC
HCC-2998 colon = test system: HCC-2998 colon
HCT-15 colon = test system: HCT-15 colon
HL-60(TB) leukemia = test system: HL-60(TB) leukemia
HOP-62 NSCLC = test system: HOP-62 NSCLC
HOP-92 NSCLC = test system: HOP-92 NSCLC
HT29 colon = test system: HT29 colon
IGROV1 ovarian = test system: IGROV1 ovarian
K-562 leukemia = test system: K-562 leukemia
LOX IMVI melanoma = test system: LOX IMVI melanoma
M14 melanoma = test system: M14 melanoma
MALME-3M melanoma = test system: MALME-3M melanoma
MCF7 breast = test system: MCF7 breast
MDA-MB-231 breast = test system: MDA-MB-231 breast
MDA-MB-435 = test system: MDA-MB-435
MDA-N = test system: MDA-N
MOLT-4 leukemia = test system: MOLT-4 leukemia
NCI-H226 lung = test system: NCI-H226 lung
NCI-H23 lung = test system: NCI-H23 lung
NCI-H460 lung = test system: NCI-H460 lung
NCI-H522 lung = test system: NCI-H522 lung
NCI/ADR-RES ovarian = test system: NCI/ADR-RES ovarian
OVCAR-3 ovarian = test system: OVCAR-3 ovarian
OVCAR-4 ovarian = test system: OVCAR-4 ovarian
OVCAR-5 ovarian = test system: OVCAR-5 ovarian
OVCAR-8 ovarian = test system: OVCAR-8 ovarian
PC-3 prostate = test system: PC-3 prostate
RPMI-8226 leukemia = test system: RPMI-8226 leukemia
RXF 393 renal = test system: RXF 393 renal
SF-268 CNS = test system: SF-268 CNS
SF-295 CNS = test system: SF-295 CNS
SF-539 CNS = test system: SF-539 CNS
SK-MEL-2 melanoma = test system: SK-MEL-2 melanoma
SK-MEL-28 melanoma = test system: SK-MEL-28 melanoma
SK-OV-3 ovarian = test system: SK-OV-3 ovarian
SN12C renal = test system: SN12C renal
SNB-19 CNS = test system: SNB-19 CNS
SNB-75 CNS = test system: SNB-75 CNS
SW-620 colon = test system: SW-620 colon
TK-10 renal = test system: TK-10 renal
U251 CNS = test system: U251 CNS
UACC-62 melanoma = test system: UACC-62 melanoma
UO-31 renal = test system: UO-31 renal
A498 renal = test system: A498 renal
A549 NSCLC = test system: A549 NSCLC
CAKI-1 renal = test system: CAKI-1 renal
HCT-116 colon = test system: HCT-116 colon
SK-MEL-5 melanoma = test system: SK-MEL-5 melanoma
T-47D breast = test system: T-47D breast
UACC-257 melanoma = test system: UACC-257 melanoma

SMILES: CCOCC(=O)N[C@H]1CCc2cc(OC(=O)COCC)c(OC)c(OC)c2-c2ccc(SC)c(=O)cc21
- GI50 (786-0 renal): 56.8 nM
- TGI (786-0 renal): > 100000 nM
- GI50 (ACHN renal): 83.1 nM
- TGI (ACHN renal): > 100000 nM
- GI50 (CCRF-CEM leukemia): 12.7 nM
- TGI (COLO 205 colon): 54 nM
- GI50 (DU-145 prostate): 31.5 nM
- GI50 (EKVX NSCLC): 32100 nM
- TGI (EKVX NSCLC): > 100000 nM
- GI50 (HCC-2998 colon): 21.1 nM
- TGI (HCC-2998 colon): 54.9 nM and 86.6 nM
- TGI (HCT-15 colon): 2850 nM
- TGI (HL-60(TB) leukemia): 31.3 nM and 32.6 nM
- TGI (HOP-62 NSCLC): > 100000 nM
- TGI (HOP-92 NSCLC): 80 nM
- TGI (HT29 colon): > 100000 nM
- GI50 (IGROV1 ovarian): 38.2 nM
- TGI (IGROV1 ovarian): > 100000 nM
- TGI (K-562 leukemia): 69.1 nM
- TGI (LOX IMVI melanoma): > 100000 nM
- GI50 (M14 melanoma): 13.4 nM
- TGI (M14 melanoma): 76.2 nM
- TGI (MALME-3M melanoma): > 100000 nM
- TGI (MCF7 breast): > 100000 nM
- GI50 (MDA-MB-231 breast): 36 nM
- TGI (MDA-MB-435): 4.12 nM
- TGI (MDA-N): 6.11 nM
- GI50 (MOLT-4 leukemia): 34 nM
- TGI (MOLT-4 leukemia): > 100000 nM
- GI50 (NCI-H226 lung): 26.4 nM
- TGI (NCI-H226 lung): 91.7 nM and 89.3 nM
- GI50 (NCI-H23 lung): 33.7 nM
- GI50 (NCI-H460 lung): 39.5 nM
- GI50 (NCI-H522 lung): 27.9 nM
- TGI (NCI-H522 lung): 38.9 nM and 107 nM
- TGI (NCI/ADR-RES ovarian): 5490 nM
- TGI (OVCAR-3 ovarian): 16.6 nM
- TGI (OVCAR-4 ovarian): > 100000 nM
- GI50 (OVCAR-5 ovarian): 54.9 nM
- TGI (OVCAR-5 ovarian): > 100000 nM
- GI50 (OVCAR-8 ovarian): 36.5 nM
- GI50 (PC-3 prostate): 16.4 nM
- TGI (RPMI-8226 leukemia): > 100000 nM
- TGI (RXF 393 renal): > 100000 nM
- GI50 (SF-268 CNS): 43.1 nM
- GI50 (SF-295 CNS): 19.8 nM
- GI50 (SF-539 CNS): 12.6 nM
- TGI (SF-539 CNS): 61 nM and 55.4 nM
- GI50 (SK-MEL-2 melanoma): > 100000 nM
- GI50 (SK-MEL-28 melanoma): > 100000 nM
- TGI (SK-MEL-28 melanoma): > 100000 nM
- GI50 (SK-OV-3 ovarian): 55.8 nM
- GI50 (SN12C renal): 55.4 nM
- TGI (SN12C renal): > 100000 nM
- GI50 (SNB-19 CNS): 28.3 nM
- TGI (SNB-19 CNS): > 100000 nM
- TGI (SNB-75 CNS): > 100000 nM
- TGI (SW-620 colon): > 100000 nM
- GI50 (TK-10 renal): 14900 nM
- TGI (TK-10 renal): > 100000 nM
- GI50 (U251 CNS): 15.4 nM
- TGI (UACC-62 melanoma): > 100000 nM
- GI50 (UO-31 renal): 680 nM
- TGI (UO-31 renal): > 100000 nM

SMILES: CC(=O)NC(CCCCNC(=O)OC(C)(C)C)C(=O)O (centres undefined)
- TGI (A498 renal): > 100000 nM
- TGI (A549 NSCLC): > 100000 nM
- TGI (ACHN renal): > 100000 nM
- TGI (CAKI-1 renal): > 100000 nM
- TGI (CCRF-CEM leukemia): > 100000 nM
- TGI (COLO 205 colon): > 100000 nM
- TGI (DU-145 prostate): > 100000 nM
- TGI (EKVX NSCLC): > 100000 nM
- TGI (HCC-2998 colon): > 100000 nM
- TGI (HCT-116 colon): > 100000 nM
- TGI (HCT-15 colon): > 100000 nM
- TGI (HL-60(TB) leukemia): > 100000 nM
- TGI (HOP-62 NSCLC): > 100000 nM
- TGI (HT29 colon): > 100000 nM
- TGI (IGROV1 ovarian): > 100000 nM
- TGI (K-562 leukemia): > 100000 nM
- TGI (LOX IMVI melanoma): > 100000 nM
- TGI (M14 melanoma): > 100000 nM
- TGI (MALME-3M melanoma): > 100000 nM
- TGI (MCF7 breast): > 100000 nM
- TGI (MDA-MB-231 breast): > 100000 nM
- TGI (MDA-MB-435): > 100000 nM
- TGI (MDA-N): > 100000 nM
- TGI (MOLT-4 leukemia): > 100000 nM
- TGI (NCI-H460 lung): > 100000 nM
- TGI (NCI-H522 lung): > 100000 nM
- TGI (NCI/ADR-RES ovarian): > 100000 nM
- TGI (OVCAR-3 ovarian): > 100000 nM
- TGI (OVCAR-4 ovarian): > 100000 nM
- TGI (OVCAR-5 ovarian): > 100000 nM
- TGI (OVCAR-8 ovarian): > 100000 nM
- TGI (PC-3 prostate): > 100000 nM
- TGI (RPMI-8226 leukemia): > 100000 nM
- TGI (SF-268 CNS): > 100000 nM
- TGI (SF-295 CNS): > 100000 nM
- TGI (SK-MEL-28 melanoma): > 100000 nM
- TGI (SK-MEL-5 melanoma): > 100000 nM
- TGI (SNB-19 CNS): > 100000 nM
- TGI (SW-620 colon): > 100000 nM
- TGI (T-47D breast): > 100000 nM
- TGI (TK-10 renal): > 100000 nM
- TGI (U251 CNS): > 100000 nM
- TGI (UACC-257 melanoma): > 100000 nM
- TGI (UACC-62 melanoma): > 100000 nM
- TGI (UO-31 renal): > 100000 nM
